# Numbers after ± are expanded uncertainties.
# Assay: relative permittivity at zero frequency (dimensionless)
# Conditions: 303.15 K; 101.33 kPa; Liquid; Parallel plate capacitor
row,relative permittivity at zero frequency,SMILES
1,106.14 ± 0.01,NC=O [formamide]
2,36.55 ± 0.22,CN(C)C=O [dimethylformamide]

row,SMILES,relative permittivity at zero frequency
1,"CN(C)CCO [2-(N,N-dimethylamino)ethanol]",17.18 ± 0.1

# Source: the NIST ThermoML archive (doi:10.1016/j.fluid.2009.07.009)
